Results on 4 compounds are retold here after ChEMBL document CHEMBL3297712, “Chasing protons: how isothermal titration calorimetry, mutagenesis, and pKa calculations trace the locus of charge in ligand binding to a tRNA-binding enzyme” (J Med Chem, 2014).

The nature of experiment [1]: Binding affinity to wild-type Zymomonas mobilis TGT overexpressed in Escherichia coli BL21(DE3) by isothermal titration calorimetric analysis. (In general: ITC needs no label: the signal is the heat of the interaction.)
Experiment [2] is described as follows: Binding affinity to Zymomonas mobilis TGT E235Q mutant overexpressed in Escherichia coli BL21(DE3) by isothermal titration calorimetric analysis.
For experiment [3], the system named is Zymomonas mobilis. The experiment can be described thus: Selectivity ratio of Kd for Zymomonas mobilis TGT D102N mutant to Kd for wild-type Zymomonas mobilis TGT.
For experiment [4], the system named is Zymomonas mobilis. The experiment in a line: Selectivity ratio of Kd for Zymomonas mobilis TGT D156N mutant to Kd for wild-type Zymomonas mobilis TGT.
Experiment [5] can be described thus: Binding affinity to Zymomonas mobilis TGT D156N mutant expressed in Escherichia coli Rosetta 2(DE3) by isothermal titration calorimetric analysis.
Experiment [6] is described as follows: Binding affinity to Zymomonas mobilis TGT D102N mutant overexpressed in Escherichia coli BL21(DE3) by isothermal titration calorimetric analysis.

A word on the Kd: it is the equilibrium constant for the complex coming apart. Low values mean tighter binding, high ones weaker binding.

Regarding `Cc1nc2cc3nc(N)[nH]c(=O)c3cc2[nH]1`, the affinity in experiment [1], expressed as Kd, was 0.288 µM.
`Nc1nc2cc3[nH]c(NCCN4CCOCC4)nc3cc2c(=O)[nH]1`: the dissociation constant (Kd) in experiment [2] is 1.28 µM; in experiment [1], 0.035 µM.
Regarding `CNc1nc2cc3c(=O)[nH]cnc3cc2[nH]1`, the Kd in experiment [1] amounted to 0.411 µM. This counts as sub-micromolar.
On to `CNc1nc2cc3c(=O)[nH]c(N)nc3cc2[nH]1`, for which the Selectivity ratio is 3 with Zymomonas mobilis [3] and 4 in the experiment on Zymomonas mobilis [4]. Moreover, the values for the Kd in experiment [5], in experiment [6] and in experiment [1] were 0.188 µM, 0.146 µM and 0.0524 µM, respectively.
